Patent US20240180921A1, “CDK8/19 INHIBITORS FOR THE TREATMENT OF CYTOKINE STORM” (University of South Carolina, priority 2021, published 2024)

How the values were obtained:
[1] = test system: mouse cytokines: IL-1β, IL-6, IL-10, MCP-1 and TNF-α; assay: LPS-induced cytokine expression in plasma of C57BL/6 mice (MSD U-plex custom panel); format: in vivo, C57BL/6 male mice; conditions: 30 mg/kg oral gavage 2 hrs prior to LPS 10 mg/kg i.p.; plasma 2 hrs and 6 hrs after LPS
Procedure: Cytokine storm was induced in C57BL/6 male mice by intraperitoneal (i.p.) injection of LPS (10 mg/kg). Two groups of LPS-treated mice (n=5) received 30 mg/kg 15u dissolved in 30% Propylene Glycol, 70% PEG-400 or vehicle control (5 mice per group), via oral gavage 2 hrs prior to LPS dosing. Blood was collected immediately before LPS dosing, 2 hrs after LPS and 6 hrs after LPS (at which time point the animals were euthanized). Plasma samples (1:100 dilution for 2 hr and 6 hr samples, 1:5 dilution for pre-LPS samples) were used to analyze the cytokines with the MSD U-plex custom panel for the following mouse cytokines: IL-1β, IL-6, IL-10, MCP-1 and TNF-α.

48 human cytokines [2] = assay: LPS-induced human cytokines in plasma of humanized mice (Human Cytokine 48-Plex Discovery Assay), Example 2; format: in vivo; conditions: plasma 6 hrs after LPS
Excerpt: (§1) To test the effect of CDK8/19 inhibition on LPS-induced cytokine expression in human immune cells, we carried out a study on humanized mice transplanted with human hematopoietic stem cells; such mice contain human blood cells of myeloid and lymphoid lineages as well as mouse blood cells. We have used CIEA NOG-EXL mice (Taconic model #13395) engrafted with human umbilical cord blood-derived CD34+ hematopoietic stem cells 21 weeks before the study. All the mice were female, 25-27 weeks old, and had >45% hCD45+ cells in blood. Eight mice were treated with 1 mg/kg LPS i.p.; this dose was selected based on the finding of (38) that 12.5 μg (˜0.5 mg/kg) produced stronger cytokine induction than 50 μg (˜2 mg/kg) in humanized mice. The first group of LPS-treated mice (n=3) (G1) received vehicle alone by oral gavage 1 hr before LPS, the second group (n=3) received 15u at 30 mg/kg by oral gavage 1 hr before LPS, and the third group (n=2) (G3) received 15u at 30 mg/kg by oral gavage 0.5 hrs after LPS. Blood samples were collected from each mouse one week before LPS dosing. Mice were euthanized 6 hrs after LPS dosing and terminal blood samples were collected for cytokine analysis; in addition, spleens were collected for RNA analysis.
The effects of LPS and 15u on the expression of 48 human cytokines were measured using Human Cytokine 48-Plex Discovery Assay (Eve Technologies) using plasma samples at 1:100 dilution. […] The results of this analysis are shown in FIG. 2 for 33 of 48 cytokines that were induced by LPS>2-fold (cytokine plots are shown in the order of fold induction by LPS). […] These included 14 mediators of cytokine storm listed in Table 1: GM-CSF, IFN-γ, IL-1 (α and β), IL-6, IL-8, IL-12 (p40 and p70), IL-18, MIG/CXCL9, MIP-1 (α and β) and TNF (α and β).

32 mouse cytokines = assay: LPS-induced mouse cytokines in plasma of humanized mice (Mouse Cytokine 32-Plex Discovery Assay), Example 2; format: in vivo, humanized CIEA NOG-EXL mice; conditions: 30 mg/kg p.o. 1 hr before LPS; plasma 6 hrs after LPS
Excerpt: as §1
We have also used the same plasma samples (at 1:100 dilution) to measure the expression of 32 mouse cytokines using Mouse Cytokine 32-Plex Discovery Assay (Eve Technologies).

[3] = test system: human cytokines associated with cytokine storm (Table 1); assay: RNA-Seq of spleens of LPS-treated humanized mice, human cytokines associated with cytokine storm; format: in vivo, humanized CIEA NOG-EXL mice (human transcripts); conditions: 6 hrs after LPS
Excerpt: as §1
(§2) RNA from spleens of mice of G1-3, euthanized 6 hrs after LPS dosing, was analyzed by RNA-Seq. […]

[4] = test system: mouse cytokines associated with cytokine storm (Table 1); assay: RNA-Seq of spleens of LPS-treated humanized mice, mouse cytokines associated with cytokine storm; format: in vivo, humanized CIEA NOG-EXL mice (mouse transcripts); conditions: 6 hrs after LPS
Excerpt: as §1, §2

48 human cytokines [5] = assay: LPS-induced human cytokines in plasma of humanized mice (Human Cytokine 48-Plex Discovery Assay), Example 3; format: in vivo; conditions: for induction of human proinflammatory cytokines by LPS: 15u 30 mg/kg p.o. or BI-1347 10 mg/kg p.o., LPS 1 mg/kg i.p., plasma 6 hrs after LPS
Procedure: Mice were randomized into 6 groups (n=4-5), Group 1 being untreated control, Group 2 receiving 15u (a.k.a. SNX) (30 mg/kg p.o., administered as in example 2), Group 3 receiving LPS (1 mg/kg i.p.), Group 4 receiving LPS plus 15u administered 1 hr before LPS, Group 5 receiving LPS plus 15u administered 0.5 hr after LPS, and Group 6 receiving LPS plus CDK8/19 inhibitor BI-1347 (28) (10 mg/kg dissolved in 30% Propylene Glycol/70% PEG-400, p.o.) administered 1 hr before LPS. Mice were euthanized 6 hrs after LPS dosing and terminal blood samples were collected for cytokine analysis. As in Example 2, the effects of LPS and 15u on the expression of 48 human cytokines were measured using Human Cytokine 48-Plex Discovery Assay (Eve Technologies) using plasma samples at 1:100 dilution. The results of this analysis are shown in FIG. 5 for those cytokines that were induced by LPS. To assure more accurate assessment of effects of CDK8/19 inhibition on LPS-induced cytokines, 4 LPS-treated animals with low serum level (below 100 pg/mL) of IL-10, the cytokine whose LPS-mediated induction is not decreased by CDK8/19 inhibition, were excluded from the analysis (the low levels of cytokines in such animals are possibly due to insufficient administration of LPS). In this study, fewer cytokines (19 of 48) were induced by LPS than in Example 2, with many cytokines showing apparently higher expression levels in untreated mice possibly reflecting an inflammatory process that could have developed in humanized mice at the late time point (25-26 weeks) after the transplantation of CD34+ hematopoietic stem cells. Nevertheless, as in example 2, the induction of most of the LPS-induced cytokines was decreased by CDK8/19 inhibitor treatment (FIG. 5), including G-CSF, IFN-γ, IL-1 (α and β), IL-6, IL-8, MIG/CXCL9, MCP-1, MIP-1β and TNF (α and β) and IP-10. Among LPS-induced cytokines, only anti-inflammatory IL-10 was induced to a greater degree with than without CDK8/19 inhibitor treatment, an indication of anti-inflammatory activity. […]

panel of 468 kinases = conditions: at 2000 nM, cited from earlier work

SMILES | effect on LPS-induced expression of the assayed cytokines (IL-1β, IL-6, IL-10, MCP-1, TNF-α) [1] | number of the most strongly LPS-induced human cytokines whose induction was suppressed (48 human cytokines [2]; 30 mg/kg oral gavage 1 hr before LPS 1 mg/kg i.p.) | LPS-induced human IP-10 (48 human cytokines [2]; 30 mg/kg p.o. 1 hr before LPS) | LPS-induced human MCP-1 (48 human cytokines [2]; 30 mg/kg p.o. 1 hr before LPS) | LPS-induced human anti-inflammatory IL-10 (48 human cytokines [2]; 30 mg/kg p.o. 1 hr before LPS) | over-induction of human IL-10 (48 human cytokines [2]; 30 mg/kg p.o. 1 hr before LPS) | induction of 14 mediators of cytokine storm: GM-CSF, IFN-γ, IL-1 (α and β), IL-6, IL-8, IL-12 (p40 and p70), IL-18, MIG/CXCL9, MIP-1 (α and β), TNF (α and β) (48 human cytokines [2]; human cytokines, 30 mg/kg p.o. 1 hr before LPS) | LPS-induced mouse IL-7 (32 mouse cytokines) | LPS-induced mouse IL-10 (32 mouse cytokines) | effect on LPS-induced mouse cytokines (27 of 32 induced) (32 mouse cytokines) | number of human cytokines with decreased RNA amounts in spleen ([3]; 15u 30 mg/kg p.o. administered after LPS (G3) vs LPS alone (G1)) | number of human cytokines with decreased RNA amounts in spleen ([3]; 15u 30 mg/kg p.o. administered before LPS (G2) vs LPS alone (G1)) | number of mouse cytokines with decreased RNA in spleen ([4]; 15u-treated G2 or G3 relative to G1) | number of mouse cytokines (including TNF and IL-10) with elevated RNA in spleen ([4]; G2 and especially G3 relative to G1) | suppression of proinflammatory cytokine induction, 15u administered 0.5 hours after LPS compared with 1 hour before LPS (48 human cytokines [5]; 30 mg/kg p.o., in most cases) | induction of human proinflammatory cytokines by LPS (48 human cytokines [5]) | S(35) S-score (panel of 468 kinases; S(#)=(number of non-mutant kinases with % Ctrl<#)/(number tested)) | S(10) S-score (panel of 468 kinases)
CN(C)C(=O)c1ccc(N2CCCN(c3ccnc4sc(C(N)=O)c(N)c34)CC2)cc1 [15u, 3-amino-4-(4-(4 (dimethylcarbamoyl)phenyl)-1,4-diazepan-1-yl)thieno[2,3-b]pyridine-2-carboxamide] | no significant effect | 24 of 27 | not inhibited | not inhibited | only borderline inhibition | not over-induced | suppressed | weakly inhibited | over-induced | most of them were unaffected | 15 of 26 | 18 of 26 | 3 of 27 | 7 | stronger | suppressed | less than 0.02 | < 0.004
CN(C)C(=O)Cn1cc(-c2ccc(-c3cncc4ccccc34)cc2)cn1 [BI-1347, 2-(4-(4-(isoquinolin-4-yl)phenyl)-1H-pyrazol-1-yl)-N,N-dimethylacetamide, reference compound] | – | – | – | – | – | – | – | – | – | – | – | – | – | – | – | broadly suppressed | – | –
